According to article PMC8537277 (Pharmaceuticals, 2021):
Like-named read-outs stand apart in the source and are kept apart here. Where a SMILES comes first, the peptide text is derived from it.

Columns and labels:
[1] = tested on: A/Parma/24/09 H1N1 oseltamivir-resistant virus; details: reference peptides; ref Scala et al. (2017) [14]; read-out: HI Titer (IC50) A/Parma/24/09 H1N1; cited from earlier work
[2] = tested on: A/Parma/24/09 H1N1 oseltamivir-resistant virus
[3] = A/Parma/24/09 oseltamivir-resistant virus, 1 h

Structure (SMILES)	IC50 [1] [nM]	IC50 [2, 3] [pM]	further results
CC(=O)N[C@@H](CO)C(=O)N[C@@H](CCCCN)C(=O)N[C@@H](Cc1c[nH]cn1)C(=O)N[C@@H](CO)C(N)=O [Peptide 1, Ac-SKHS-NH2] (Ac-SKHS-NH2)	1.5		
CC(=O)N[C@@H](CO)C(=O)N[C@@H](CC(C)C)C(=O)N[C@@H](CC(=O)O)C(=O)N[C@@H](CS)C(N)=O [Peptide 2, Ac-SLDC-NH2] (Ac-SLDC-NH2)	6		
CC(=O)N[C@@H](CO)C(=O)N[C@@H](C)C(=O)N[C@@H](Cc1c[nH]cn1)C(=O)N[C@@H](CO)C(N)=O [Peptide 4, Ac-SAHS-NH2] (Ac-SAHS-NH2)			IC50 ([2]; read-out: HI Titer (IC50) A/Parma/24/09 H1N1, 50% inhibition of virus-induced hemagglutination, N.D. = not detectable at maximum tested concentration 12.5 × 10^3 nM): 500 pM
CC(=O)N[C@@H](CO)C(=O)N[C@@H](CCCCN)C(=O)N[C@@H](C)C(=O)N[C@@H](CO)C(N)=O [Peptide 5] (Ac-SKAS-NH2)		2.9	
CC(=O)N[C@@H](CO)C(=O)N[C@@H](C)C(=O)N[C@@H](CC(=O)O)C(=O)N[C@@H](CS)C(N)=O [Peptide 8] (Ac-SADC-NH2)		0.0022	
CC(=O)N[C@@H](CO)C(=O)N[C@@H](CC(C)C)C(=O)N[C@@H](CC(=O)O)C(=O)N[C@@H](C)C(N)=O [Peptide 10] (Ac-SLDA-NH2)		6100	
